The results in this text go back to US8404696B2, “Quinazoline-2,4-dione derivative, and medical compositions for the prophylaxis and treatment of cranial nerve disease containing the same” (Shin Poong Pharmaceutical Co., Ltd., priority 2008, dated 2013).

Test [1] deals with middle cerebral artery occlusion (MCAO) model. As to the kind of experiment: Anti-stroke effect in middle cerebral artery occlusion (MCAO) model, oral administration before inducing stroke. In kind it is in vivo, rats of SD species. The following applies: 2 g/kg po; for Infarcted volume (Mean ± standard deviation): negative control 0.45 ± 0.03.
Test [2] relates to superoxide dismutase (SOD). As to the kind of experiment: Increase of superoxide dismutase (SOD) activity in mouse brain cells. In kind it is cell-based. The note with it: 100 μg/ml. How it is done: ROS inhibitory effect of compounds was represented to the dose suppressing 50% of production of reactive oxygen compared to control. […] The activity of superoxide dismutase (SOD) was measured by using a kit acquired in Sigma.

The test system of test [3] is mixed culture of nerve cells-glial cells. As to the kind of experiment: Protecting effect on NMDA-induced nerve cell death (LDH release). In kind it is cell-based, ICR mouse. The note with it: 100 μM NMDA, LDH release after 24 hours. A digest of the protocol: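 Embryonic day-14 ICR mouse cortical neurons seeded on cortical glia, Ara-C-treated, then exposed at day 12–15 for 20 min to 100 μM NMDA with compound at 1 or 2 μg/mL. LDH released 24 h later measured colorimetrically as a cell-death index.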

The test system of test [4] is SH-SY5Y cells. As to the kind of experiment: Inhibitory effect on H2O2-mediated cytotoxicity (MTT assay). In kind it is cell-based, humans. The following applies: 200 μM hydrogen peroxide, 24 hours. How it is done:
SH-SY5Y cells that are oriented by nerve cell line from humans were cultured with 3×10^4 cell concentration in 96 well plate, and the sample was treated. After 30 minutes, 200 μM hydrogen peroxide was treated to induce toxicity for 24 hours. After the reaction was completed, the survival rate of cells was measured by MTT assay.
(In general: Tetrazolium assays rely on reduction of a dye to a coloured formazan, in cell work by metabolically active cells.)

In another test the test system is thoracic aorta of rats. As to the kind of experiment: Relaxing effect on thoracic aorta contracted by phenylephrine (organ bath). Details: species or system rats of SD species. The note with it: 67 μg/mL, phenylephrine 0.5 μM, mean n = 3; for inhibition at 67 µg/mL: Rattus norvegicus, read-out: Relaxation percentage. A digest of the protocol: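 Thoracic aortic rings (2 mm) from ether-anesthetized male SD rats (250-300 g) were mounted in Krebs buffer gassed with 95% O2/5% CO2 and equilibrated at 1.0 g basal tension for 90 min. After stable contraction with phenylephrine (0.5 μM), compounds were added and relaxation recorded.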

Another test has as its system mouse brain cells. Kind of test: Inhibitory effect on ROS production in brain cells (DCF-DA, NMDA-induced). In kind it is cell-based. The note with it: dose suppressing 50% of production of reactive oxygen compared to control; mouse brain cells.
Test [5] has as its system pentylentetrazole (PTZ)-induced convulsion. Kind of test: Anti-convulsant effect, pentylentetrazole (PTZ) test. In kind it is in vivo. The note with it: 10 mg/kg intraperitoneally, PTZ 80 mg/kg subcutaneously; for mortality rate / Induction percentage of convulsion: (animals/total); for mortality rate: negative control 70(17/23); for Induction percentage of convulsion: negative control 100(23/23); for Initiation time of convulsion: negative control 5.0 ± 0.7; for Duration of convulsion: negative control 46.7 ± 3.3. A digest of the protocol: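 Compound was given intraperitoneally at 10 mg/kg before PTZ challenge. The read-outs were time to convulsion onset, time until convulsions fully disappeared, and mortality.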

Test [6] relates to SH-SY5Y cells. Kind of test: Inhibitory effect on ZnSO4-mediated cytotoxicity (MTT assay). In kind it is cell-based, humans. The following applies: compound 50 μg/ml; 600 μM zinc sulfate, 24 hours. How it is done:
SH-SY5Y cells were cultured with 3×10^4 cell concentration in 96 well plates, and the compound (50 μg/ml) was treated. After 30 minutes, 600 μM of zinc sulfate was treated to induce toxicity for 24 hours and survival rate of cells was measured by MTT assay.

Where [7] appears, read: treatment time 0 (right before inducing ischemic stroke).
The mark [8] stands for this setting: treatment time 1 (an hour before inducing ischemic stroke).

For the molecule `C[N+](C)(C)CCOP(=O)(O)OP(=O)([O-])OC[C@H]1O[C@@H](n2ccc(N)nc2=O)[C@H](O)[C@@H]1O` [Citicoline, reference compound], in test [1] (setting [7]), the “Inhibitory percentage compared to negative control” value worked out at 37.8% and the “Infarcted volume (Mean ± standard deviation)” value was determined as 0.28 ± 0.04 cm^3. Moreover, in test [1] (setting [8]), the “Inhibitory percentage compared to negative control” value is on record as 51.1% and the “Infarcted volume (Mean ± standard deviation)” value turned out to be 0.22 ± 0.03 cm^3.

As for `CC(=O)N(CCCCN(CCCn1c(=O)[nH]c2ccccc2c1=O)C(C)=O)CCCn1c(=O)[nH]c2ccccc2c1=O` [Compound 4, N-(4-{acetyl-[3-(2,4-dioxo-1,4-dihydro-2H-quinazolin-3-yl)propyl]amino}butyl)-N-[3-(2,4-dioxo-1,4-dihydro-2H-quinazolin-3-yl)propyl]acetamide], in test [2], the “Increase of SOD activity, compared to control” value (shortened to “Increase of SOD activity”) was 0.6 ± 2.2. The “Inhibitory effect of cell death by NMDA-induced excitable neurotoxicity” value (from here on “Inhibitory effect of cell death”) in test [3] (1 μg/ml compound) was 22.3%; in test [3] (2 μg/ml compound) it was 7.4%. Moreover, the figures for the “inhibitory percentage, oxidative toxicity induced by hydroperoxide” value in the test with SH-SY5Y cells [4] (5 μg/ml) and in the test with SH-SY5Y cells [4] (50 μg/ml) were 2.0 ± 0.4% and 18.1 ± 2.1%, respectively. Further, the inhibition at 67 µg/mL in the test with thoracic aorta of rats amounted to 7.7%.

For the molecule “[3-(2,4-dioxo-1,4-dihydro-2H-quinazolin-3-yl)propyl]-{4-[3-(2,4-dioxo-1,4-dihydro-2H-quinazolin-3-yl)propylamino]butyl}heptanoic amide [Compound 35]”, the “Increase of SOD activity” value in test [2] is given as 3.4 ± 7.9. Moreover, the “Inhibitory effect of cell death” value in test [3] (1 μg/ml compound) is 32.5%. Also, in test [3] (2 μg/ml compound), the “Inhibitory effect of cell death” value turned out to be 35.7%. The “ROS inhibitory effect ID50” value in the test with mouse brain cells came out at 140.0 ± 18.6 µg/mL. Further, in test [5], the mortality rate is recorded as 33(2/6) %, the “Induction percentage of convulsion” value was 100(6/6) %, the “Initiation time of convulsion” value is recorded as 5.4 ± 1.6 min and the Duration of convulsion is 33.3 ± 7.3 min. The Relaxation percentage in the test with thoracic aorta of rats was found to be 42.6%. For the same molecule, the “inhibitory percentage, zinc-induced toxicity” value in the test with SH-SY5Y cells [6] is recorded as 9.1 ± 1.8%.

On to `O=c1[nH]c2ccccc2c(=O)n1CCCNCCCCNCCCn1c(=O)[nH]c2ccccc2c1=O` [Compound 2, 3-(3-{4-[3-(2,4-dioxo-1,4-dihydro-2H-quinazolin-3-yl)propylamino]butylamino}propyl)-1H-quinazoline-2,4-dione], for which, in test [2], the “Increase of SOD activity” value worked out at 2.8 ± 4.0. Moreover, the “Inhibitory effect of cell death” value in test [3] (1 μg/ml compound) came out at 11.0%. Moreover, in test [3] (2 μg/ml compound), the “Inhibitory effect of cell death” value is 0.7%. Moreover, in test [5], the mortality rate was 67(4/6) %, the “Induction percentage of convulsion” value is on record as 100(6/6) %, the “Initiation time of convulsion” value was determined as 12.9 ± 3.7 min and the Duration of convulsion stood at 35.7 ± 7.1 min. The inhibition at 67 µg/mL in the test with thoracic aorta of rats was found to be 10.9%. Moreover, the “inhibitory percentage, zinc-induced toxicity” value with SH-SY5Y cells [6] is given as 21.7 ± 4.1%.

Consider `CS(=O)(=O)N(CCCCNCCCn1c(=O)[nH]c2ccccc2c1=O)CCCn1c(=O)[nH]c2ccccc2c1=O` [Compound 12, N-[3-(2,4-dioxo-1,4-dihydro-2H-quinazolin-3-yl)propyl]-N-{4-[3-(2,4-dioxo-1,4-dihydro-2H-quinazolin-3-yl)propylamino]butyl}methansulfonamide], for which the “Increase of SOD activity” value in test [2] amounted to 2.8 ± 1.8. Moreover, the “Inhibitory effect of cell death” value in test [3] (1 μg/ml compound) is 5.7%. For the same molecule, the “Inhibitory effect of cell death” value in test [3] (2 μg/ml compound) was determined as 2.6%. Further, in test [5], the mortality rate is listed as 67(4/6) %, the “Induction percentage of convulsion” value is listed as 100(6/6) %, the “Initiation time of convulsion” value is 13.7 ± 6.2 min and the Duration of convulsion amounted to 39.3 ± 8.8 min. In addition, in the test with thoracic aorta of rats, the inhibition at 67 µg/mL was found to be 10.9%. The “inhibitory percentage, zinc-induced toxicity” value in the test with SH-SY5Y cells [6] is 12.7 ± 4.3%.
